How the values were obtained:
[1] = test system: soybean glufosinate-resistant cultivar (CDZ 4938); test: Low-tunnel field trial of dicamba volatilization, visible injury to soybean bioindicator (2020); format: in vivo
Protocol: To further evaluate the efficacy of potassium tetraborate tetrahydrate in reducing volatilization of dicamba, a series of low-tunnel trials were conducted in Fayetteville, Arkansas in 2020, with each trial replicated twice. Experimental treatments were arranged as a single-factor randomized complete block design with three replications. […] A glufosinate-resistant cultivar (CDZ 4938) was planted on 36-inch spaced rows, serving as a bioindicator to quantify visible injury and distance traveled caused by dicamba volatility. Each low-tunnel placed in the field measured 5 by 20 ft (covering two rows of soybean). All tunnels were covered with transparent plastic to create an environment suitable for volatility and to contain the injury. After all tunnels were placed in the field, moistened flats of soil were placed 0.5 miles from the field and treated. Once treated, two flats were placed into appropriate tunnels between two rows of soybean with one flat on either side of a high-volume air sampler located in the center of each tunnel for 48 hours. Afterwards, the flats of soil, air samplers and tunnels were removed from the field. Immediately following trial initiation, pH of each spray solution was collected and analyzed. For data collection, soybean under each tunnel were divided into […] of 5 foot in length where visible injury was assessed on a 0 to 100 scale, where 0 equals no injury and 100 equals plant death. […] All data were subjected to analysis of variance and means separated using Fisher's protected least significance test (α=0.05)

[2] = pH of tank mix, 2019 field trial; format: physicochemical
Protocol: (§1) A field trial was conducted to determine the effect of adding potassium borate to the herbicide dicamba with respect to the volatilization of dicamba and the movement of dicamba within the environment. In this trial, potassium borate was added to two highly volatile formulations of dicamba, Clarity® (BASF) and Clash™ (Nufarm Americas, Inc), in combination with glyphosate (Roundup PowerMax II®). […] The formulations were applied to a moistened silt loam soil in contained in two plastic trays and placed under 20-foot long tunnels between two rows of dicamba-sensitive (i.e., non-tolerant) soybean crop. […] Soybean injury was visually assessed at 14 and 21 days after initiation of the experiment. Likewise, the distance from the center of the tunnel to the furthest observed 5% level of injury was measured. Air samplers in the center of each tunnel were also used to quantify dicamba volatilization. […]
(§2) In order to evaluate a proprietary volatility reducing agent on several dicamba formulations, two low-tunnel trials were conducted in Fayetteville, Arkansas in 2019. […] Dicamba products evaluated included the diglycolamine (DGA) salt of dicamba (Xtendimax) plus a commercial volatility reduction agent (VaporGrip), DGA salt of dicamba (Clarity) with the volatility reduction agent BK3O3, the dimethylamine (DMA) salt of dicamba (Vanquish), and the DMA salt with BK3O3 along with a nontreated. […]

[3] = test system: dicamba-sensitive soybean; test: Low-tunnel field trial of dicamba volatilization, injury to dicamba-sensitive soybean (2019); format: in vivo; conditions: FIG. 1
Protocol: as §1, §2

[4] = Kborate concentration of 0.025 molar, even when mixed with the potassium salt of glyphosate
Protocol: To further evaluate the efficacy of potassium tetraborate tetrahydrate in reducing volatilization of dicamba, a series of low-tunnel trials were conducted in Fayetteville, Arkansas in 2020, with each trial replicated twice. Experimental treatments were arranged as a single-factor randomized complete block design with three replications. […] A glufosinate-resistant cultivar (CDZ 4938) was planted on 36-inch spaced rows, serving as a bioindicator to quantify visible injury and distance traveled caused by dicamba volatility. Each low-tunnel placed in the field measured 5 by 20 ft (covering two rows of soybean). All tunnels were covered with transparent plastic to create an environment suitable for volatility and to contain the injury. After all tunnels were placed in the field, moistened flats of soil were placed 0.5 miles from the field and treated. Once treated, two flats were placed into appropriate tunnels between two rows of soybean with one flat on either side of a high-volume air sampler located in the center of each tunnel for 48 hours. […] Immediately following trial initiation, pH of each spray solution was collected and analyzed. For data collection, soybean under each tunnel were divided into eight quadrants of 5 foot in length where visible injury was assessed on a 0 to 100 scale, where 0 equals no injury and 100 equals plant death. […]

With CP(=O)(O)CCC(N)C(=O)O (stereo not shown) [glufosinate, 2-amino-4-[hydroxy(methyl)phosphoryl]butanoic acid, reference compound] the “average visual injury to soybean in comparison to dicamba plus glyphosate” value ([1]; glufosinate mixed with dicamba, FIG. 11, 21 days after treatment) was “increased average visual injury”.

For [K+].[K+].[K+].[O-]B([O-])[O-] [potassium borate], the “increase in tank mix pH” value ([2]; potassium borate 30 g/L added to various formulations of dicamba mixed with glyphosate) was 1.9-2.15, the “increase of pH of tank mixes” value ([2]; potassium borate added to tank mixes comprising glyphosate and various formulations of dicamba) was no more than 2.15 pH units and the “reduction of sensitive soybean injury” value ([3]; potassium borate 30 g/L added, compared to standard tank mixes of dicamba or dicamba+glyphosate) was no more than 18%. The “reduction of injury to sensitive soybean” value ([3]; potassium borate added to dicamba, compared to standard tank mixes of dicamba) was no more than 18 percentage points.

In the case of “potassium tetraborate tetrahydrate [Kborate]”, the “pH of the spray solution” value [4] is reported as “above 6.0”, the “reducing volatility of dicamba based on injury to soybean, compared with Kacetate” value ([1]; 0.015 molar concentration of Kborate) is reported as “comparable to 0.05 moles of Kacetate” and the “reducing volatility of a dicamba plus glyphosate mixture, compared with Kacetate” value ([1]; FIGS. 8-10, 21 days after treatment) is reported as “outperformed Kacetate”. The “dicamba volatility of dicamba and glufosinate mixtures” value ([1]; Kborate added, FIGS. 11-13, 21 days after treatment) was “reduced dicamba volatility, more so than did Kacetate” and the “volatilization of a dicamba plus glyphosate mixture based on average and maximum injury ratings and distance to 5% injury to soybean” value ([1]; Kborate concentrations of 0.0125 molar or higher, 21 days after treatment, FIGS. 5-7) was “significantly reduced volatilization”.
